From patent US11787780B2 (CORCEPT THERAPEUTICS INCORPORATED, priority 2020, dated 2023)

System: induction of TAT by dexamethasone in HepG2 cells
Assay: Hep G2 TAT assay (inhibition of dexamethasone-induced TAT)
Assay type: cell-based, human
Details: challenge of 100 nM dexamethasone, IC50 converted to Ki by Cheng and Prusoff equation
Experimental: Glucocorticoid mediated activation of TAT occurs by transactivation of glucocorticoid response elements in the TAT promoter by glucocorticoid receptor-agonist complex. The following protocol describes an assay for measuring induction of TAT by dexamethasone in HepG2 cells (a human liver hepatocellular carcinoma cell line; ECACC, UK).
TAT activity was measured as outlined in the literature by A. Ah et al., J. Med. Chem., 2004, 47, 2441-2452.
HepG2 cells were cultured using MEME media supplemented with 10% (v/v) foetal bovine serum; 2 mM L-glutamine and 1% (v/v) NEAA at 37° C., 5%/95% (v/v) CO2/air. The HepG2 cells were counted and adjusted to yield a density of 0.125×10^6 cells/ml in RPMI 1640 without phenol red, 10% (v/v) charcoal stripped FBS, 2 mM L-glutamine and seeded at 25,000 cells/well in 200 μl into 96 well, sterile, tissue culture micro titre plates, and incubated at 37° C., 5% CO2 for 24 hours
Growth media was removed and replaced with assay media {RPMI 1640 without phenol red, 2 mM L-glutamine+10 μM forskolin}. Test compounds were screened against a challenge of 100 nM dexamethasone. Compounds were serially half log diluted in 100% (v/v) dimethylsulphoxide from a 10 mM stock.
Test compounds were pre-incubated with cells in micro-titre plates for 30 minutes at 37° C., 5/95 (v/v) CO2/air, before the addition of 100 nM dexamethasone and then subsequently for 20 hours to allow optimal TAT induction.
HepG2 cells were then lysed with 30 μl of cell lysis buffer containing a protease inhibitor cocktail for 15 minutes at 4° C. […] After 2 hours incubation at 37° C. the reaction was terminated by the addition of 15 μl of 10M aqueous potassium hydroxide solution, and the plates incubated for a further 30 minutes at 37° C. The TAT activity product was measured by absorbance at λ 340 nm.
[compound] and fitting the data to a 4 parameter logistic equation. IC50 values were converted to Ki (equilibrium dissociation constant) using the Cheng and Prusoff equation, assuming the antagonists were competitive inhibitors with respect to dexamethasone.

SMILES | Ki [nM]
Cc1ncc(CC2(c3cc4cnn(-c5ccc(F)cc5)c4cc3C)CCN(S(=O)(=O)c3cnn(C)c3)C2)s1 (stereo not drawn) [Example 227, 5-((3-(1-(4-fluorophenyl)-6-methyl-1H-indazol-5-yl)-1-((1-methyl-1H-pyrazol-4-yl)sulfonyl)pyrrolidin-3-yl)methyl)-2-methylthiazole] | 350
COc1cc2c(cnn2-c2ccc(F)cc2)cc1C1(Cc2ccccc2)CCN(C(=O)c2cscn2)C1 (stereo not drawn) [Example 230, (3-benzyl-3-(1-(4-fluorophenyl)-6-methoxy-1H-indazol-5-yl)pyrrolidin-1-yl)(thiazol-4-yl)methanone] | 74
Cc1cc2c(cnn2-c2ccc(F)cc2)cc1C1(Cc2ccccc2)CCN(C(=O)c2ccsc2)C1 (stereo not drawn) [Example 203, (3-benzyl-3-(1-(4-fluorophenyl)-6-methyl-1H-indazol-5-yl)pyrrolidin-1-yl)(thiophen-3-yl)methanone] | 21
Cc1cc2c(cnn2-c2ccc(F)cc2)cc1C1(Cc2ccccc2)CCN(C(=O)c2ccnnc2)C1 (stereo not drawn) [Example 195, (3-benzyl-3-(1-(4-fluorophenyl)-6-methyl-1H-indazol-5-yl)pyrrolidin-1-yl)(pyridazin-4-yl)methanone] | 70
CCCn1cc(S(=O)(=O)N(C)C2(C)CCN(c3cc4cnn(-c5ccc(F)cc5)c4cc3C)C2)cn1 (stereo not drawn) [Example 119] | 251
CCn1cc(S(=O)(=O)N2CCC(Cc3ccccc3)(c3cc4cnn(-c5ccc(=O)n(C)c5)c4cc3C)C2)nn1 (stereo not drawn) [Example 291, 5-(5-(3-benzyl-1-((1-ethyl-1H-1,2,3-triazol-4-yl)sulfonyl)pyrrolidin-3-yl)-6-methyl-1H-indazol-1-yl)-1-methylpyridin-2(1H)-one] | 110
Cc1cc2c(cnn2-c2ccc(F)cc2)cc1C1(Cc2cncs2)CCN(S(=O)(=O)c2cnn(C)c2)C1 (stereo not drawn) [Example 179] | 331
C#CCC1(c2cc3cnn(-c4ccc(F)cc4)c3cc2C)CCN(S(C)(=O)=O)C1 (stereo not drawn) [Example 184] | 252
Cc1cc2c(cnn2-c2ccc(F)cc2)cc1C1(CC#Cc2ccccc2)CCN(S(=O)(=O)c2cnn(C)c2)C1 (stereo not drawn) [Example 211, 1-(4-fluorophenyl)-6-methyl-5-(1-((1-methyl-1H-pyrazol-4-yl)sulfonyl)-3-(3-phenylprop-2-yn-1-yl)pyrrolidin-3-yl)-1H-indazole] | 47
Cc1cc2c(cnn2-c2cccnc2)cc1C1(Cc2ccccc2)CCN(S(=O)(=O)c2cnn(C)n2)C1 (stereo not drawn) [Example 238, 5-(3-benzyl-1-((2-methyl-2H-1,2,3-triazol-4-yl)sulfonyl)pyrrolidin-3-yl)-6-methyl-1-(pyridin-3-yl)-1H-indazole] | 64
CCCn1cc(S(=O)(=O)N2CCN(c3cc(C)c4c(cnn4-c4ccc(F)cc4)c3)CC23CC3)cn1 [Example 80] | 536
CCCn1cc(S(=O)(=O)N2CCC(Cc3ccccc3)(c3cc4cnn(C5CCC(=O)N(C)C5)c4cc3C)C2)cn1 (stereo not drawn) [Example 273, 5-(5-(3-benzyl-1-((1-propyl-1H-pyrazol-4-yl)sulfonyl)pyrrolidin-3-yl)-6-methyl-1H-indazol-1-yl)-1-methylpiperidin-2-one] | 280
COCCn1cc(S(=O)(=O)N2CCC(Cc3ccccc3)(c3cc4cnn(-c5ccc(=O)n(C)c5)c4cc3C)C2)cn1 (stereo not drawn) [Example 281, 5-(5-(3-benzyl-1-((1-(2-methoxyethyl)-1H-pyrazol-4-yl)sulfonyl)pyrrolidin-3-yl)-6-methyl-1H-indazol-1-yl)-1-methylpyridin-2(1H)-one] | 75
Cc1cc2c(cnn2-c2ccc(F)cc2)cc1N1C[C@@H]2CN(S(=O)(=O)c3cnn(C)c3)C[C@@H]2C1 [Example 92] | 495
CCCn1cc(S(=O)(=O)N2CC=C(c3cc4cnn(-c5cccc(C(=O)NC6CCOC6)c5)c4cc3C)CC2)cn1 (stereo not drawn) [Example 145] | 208
Cc1cc2c(cnn2-c2ccc(=O)n(C)c2)cc1C1(Cc2ccccc2)CCN(S(=O)(=O)c2cn(C)nc2C)C1 (stereo not drawn) [Example 282, 5-(5-(3-benzyl-1-((1,3-dimethyl-1H-pyrazol-4-yl)sulfonyl)pyrrolidin-3-yl)-6-methyl-1H-indazol-1-yl)-1-methylpyridin-2(1H)-one] | 120
Cc1cc2c(cnn2-c2ccc(F)cc2)cc1C1(Cc2ccccc2)CCN(C(=O)c2csc(C(F)(F)F)n2)C1 (stereo not drawn) [Example 229, (3-benzyl-3-(1-(4-fluorophenyl)-6-methyl-1H-indazol-5-yl)pyrrolidin-1-yl)(2-(trifluoromethyl)thiazol-4-yl)methanone] | 210

SMILES | Ki [nM]
O=C1CC(Cc2ccccc2)(c2cc3cnn(-c4ccc(F)cc4)c3cc2Cl)C(=O)N1Cc1ccccc1 (stereo not drawn) [Example 228, 1,3-dibenzyl-3-(6-chloro-1-(4-fluorophenyl)-1H-indazol-5-yl)pyrrolidine-2,5-dione] | 28
Cc1cc2c(cnn2-c2ccc(F)cc2)cc1C1(/C=C/c2ccccc2)CCN(S(=O)(=O)c2cnn(C)c2)C1 (stereo not drawn) [Example 342, (E)-1-(4-fluorophenyl)-6-methyl-5-(1-((1-methyl-1H-pyrazol-4-yl)sulfonyl)-3-styrylpyrrolidin-3-yl)-1H-indazole] | 110
Cc1cc2c(cnn2-c2ccc(=O)n(C)c2)cc1C1(Cc2ccccc2)CCN(S(=O)(=O)c2cnn(C3CCC3)c2)C1 (stereo not drawn) [Example 279, 5-(5-(3-benzyl-1-((1-cyclobutyl-1H-pyrazol-4-yl)sulfonyl)pyrrolidin-3-yl)-6-methyl-1H-indazol-1-yl)-1-methylpyridin-2(1H)-one] | 50
C#CCC1(c2cc3cnn(-c4ccc(F)cc4)c3cc2C)CCN(S(=O)(=O)c2cnn(C)c2)C1 (stereo not drawn) [Example 185] | 164
CCCn1cc(S(=O)(=O)N2C[C@H](C)N(c3cc4cnn(-c5ccc(F)cc5)c4cc3C)C[C@@H]2C)cn1 [Example 81] | 58
Cc1cc2c(cnn2-c2ccc(F)cc2)cc1C1(Cc2cncs2)CCN(S(C)(=O)=O)C1 (stereo not drawn) [Example 180] | 809
CCCn1cc(S(=O)(=O)N2CCC(c3cc4cnn(-c5ccc(F)cc5)c4cc3C)C(C)C2)cn1 (stereo not drawn) [Example 26, 1-(4-fluorophenyl)-6-methyl-5-(3-methyl-1-((1-propyl-1H-pyrazol-4-yl)sulfonyl)piperidin-4-yl)-1H-indazole] | 50
Cc1ncc(CC2(c3cc4cnn(-c5ccc(F)cc5)c4cc3C)CCN(C(=O)c3ccccc3)C2)s1 (stereo not drawn) [Example 234, (3-(1-(4-fluorophenyl)-6-methyl-1H-indazol-5-yl)-3-((2-methylthiazol-5-yl)methyl)pyrrolidin-1-yl)(phenyl)methanone] | 150
Cc1cc2c(cnn2-c2ccc(=O)n(C)c2)cc1C1(Cc2ccccc2)CCN(S(=O)(=O)c2nccn2C)C1 (stereo not drawn) [Example 285, 5-(5-(3-benzyl-1-((1-methyl-1H-imidazol-2-yl)sulfonyl)pyrrolidin-3-yl)-6-methyl-1H-indazol-1-yl)-1-methylpyridin-2(1H)-one] | 82
Cc1cc2c(cnn2-c2ccc(=O)n(C)c2)cc1C1(Cc2ccccc2)CCN(S(=O)(=O)c2cnn(C)c2C)C1 (stereo not drawn) [Example 284, 5-(5-(3-benzyl-1-((1,5-dimethyl-1H-pyrazol-4-yl)sulfonyl)pyrrolidin-3-yl)-6-methyl-1H-indazol-1-yl)-1-methylpyridin-2(1H)-one] | 58
COc1cc2c(cnn2-c2ccc(F)cc2)cc1C1(Cc2ccc(F)cc2)CCN(S(=O)(=O)C2CC2)C1 (stereo not drawn) [Example 220, 5-(1-(cyclopropylsulfonyl)-3-(4-fluorobenzyl)pyrrolidin-3-yl)-1-(4-fluorophenyl)-6-methoxy-1H-indazole] | 24
Cc1cc(CC(=O)N2CCC(Cc3ccccc3)(c3cc4cnn(-c5ccc(F)cc5)c4cc3C)C2)on1 (stereo not drawn) [Example 197, 1-(3-benzyl-3-(1-(4-fluorophenyl)-6-methyl-1H-indazol-5-yl)pyrrolidin-1-yl)-2-(3-methylisoxazol-5-yl)ethan-1-one] | 65
CS(=O)(=O)N1CCC(Cc2ccccc2)(c2cc3cnn(-c4ccc(F)cc4)c3cc2F)C1 (stereo not drawn) [Example 181] | 165
CCc1cc2c(cnn2-c2ccc(=O)n(C)c2)cc1C1(Cc2ccccc2)CCN(S(=O)(=O)c2cnn(C)n2)C1 (stereo not drawn) [Example 333, 5-(5-(3-benzyl-1-((2-methyl-2H-1,2,3-triazol-4-yl)sulfonyl)pyrrolidin-3-yl)-6-ethyl-1H-indazol-1-yl)-1-methylpyridin-2(1H)-one] | 41
Cc1cc2c(cnn2-c2ccc(F)cc2)cc1C1(Cc2nccs2)CCN(S(C)(=O)=O)C1 (stereo not drawn) [Example 187] | 199
Cc1cc2c(cnn2-c2ccc(F)cc2)cc1C1(Cc2ccccc2)CCN(C(=O)Cc2noc3ccccc23)C1 (stereo not drawn) [Example 198, 2-(benzo[d]isoxazol-3-yl)-1-(3-benzyl-3-(1-(4-fluorophenyl)-6-methyl-1H-indazol-5-yl)pyrrolidin-1-yl)ethan-1-one] | 30
